From article PMC7332124, “Design, One Pot Synthesis and Molecular Docking Studies of Substituted-1H-Pyrido[2,1-b] Quinazolines as Apoptosis-Inducing Anticancer Agents” (Asian Pacific Journal of Cancer Prevention : APJCP, 2020) come the findings set out here.

Entries after “also recorded” stand apart in the source; their conditions may differ.

Type in all cases: cell-based, human
For test [1], the system named is A549 cells. Nature of the test: Mitochondrial membrane potential (JC-1, flow cytometry). The settings on record: 0.5-5 µM, 72 h. The procedure: The cyanine dye JC-1 (5,5′,6,6′-tetrachloro-1,1′,3,3′-tetraethylbenzimidazolylcarbocyanine iodide) is a cell-penetrating dye that facilitates discrimination of energized and de energized mitochondria thus, high mitochondrial potential shifts its emission fluorescence from green to red (Vundru et al., 2013).This phenomenon was assessed by flow cytometry (FACS). A549 cells (1.5x10^6 cells/ml) were seeded in 12 well plates and allowed to adhere for overnight. Then the cells were incubated with compound 4q at 0.5, 1, 2.5 and 5 µM concentrations for 72 h. Cells were collected and washed with PBS and resuspended in solution of JC- 1 (1 µM) and incubated for 30 min in incubator at 37 °C. The cells were washed twice with PBS and cells were trypsinized, centrifuged and 10,000 events were analyzed by flow cytometer (BD FACSVerse™, USA).
Background: A flow cytometer gives signals particle by particle.

Test [2] deals with HCT-15. Nature of the test: Cell growth inhibition assay (MTT, day 0 subtracted). The settings on record: Homo sapiens, 72 h, read-out: In vitro Growth Inhibitory Concentration (GI50). The protocol: (§1) Various cancer cells were used to screen anticancer activity of newly synthesized compounds. Lung (A549 and NCI-H460), colon (HCT-15 and HT-29), prostate (DU-145) cancer cells maintained in RPMI-1640 media while normal lung fibroblasts cell line (HFL-1) were maintained in F-12 k medium supplemented with 10% fetal bovine serum (FBS) with 1% antibiotic-antimycotic solution (Sigma). Cells were maintained in 5% CO2 with 98% relative humidity at 37 °C in incubator. When 80-90% of confluency is reached, they were sub-cultured using 0.25% trypsin/1 mM EDTA solution for further passage. The compounds in this series were dissolved in DMSO (1 %) to prepare the stock solution of 10 mM. Further dilutions were made accordingly with respective media to obtain the required concentrations.
(§2) Briefly, the cells were seeded on to a 96-well plate in 100 µl of medium. Following 24 h MTT reagent was added in few wells and day 0 absorbance was analyzed, and then cells were treated with compounds and incubated for an additional 72 h. After the treatment, 100 µl of MTT (0.5 mg/ml) was added and incubated at 37 °C for 4 h. Then MTT reagent was suctioned, the insoluble formazan crystals were dissolved in DMSO and formazan product formed is measured at 570 nm wavelength. The day 0 absorbance was subtracted from the 72 h incubated plates and data were plotted as a percentage of untreated control (Dai et al., 2011).

In test [3] the test system is A549. Described as above. To be noted: Homo sapiens, 72 h, read-out: In vitro Growth Inhibitory Concentration (GI50). The protocol: as §1, §2
In test [4] the test system is HT-29. Described as above. The settings on record: Homo sapiens, 72 h, read-out: In vitro Growth Inhibitory Concentration (GI50). The procedure:
as §1, §2

Test [5] concerns HFL-1 normal lung fibroblasts. The test is described as above. The settings on record: Homo sapiens, HFL1, 72 h, read-out: In vitro Growth Inhibitory Concentration (GI50). The procedure:
as §1, §2

Test [6] concerns DU-145. Described as above. The settings on record: Homo sapiens, 72 h, read-out: In vitro Growth Inhibitory Concentration (GI50). The protocol: as §1, §2
Test [7] concerns NCI-H460. The test is described as above. The settings on record: Homo sapiens, 72 h, read-out: In vitro Growth Inhibitory Concentration (GI50). The procedure:
as §1, §2

Test [8] has as its system A549 cells. Description: Clonogenic growth inhibition assay. To be noted: 1, 2.5 and 5 µM, 7 days. The protocol: The assay mainly tests ability to undergo “unlimited” division by every cell in the population and the hindrance of colony formation by compound 4i was determined in exponentially growing A549 cells by culturing 100-150 cells per well. […] Then, formed colonies were fixed with glutaraldehyde (6.0% v/v), stained with crystal violet (0.5% w/v). The treatment clearly […] the capacity to produce colonies in lung cancer cell population in a concentration dependent manner. […] The total colonies were counted by molecular imaging system Vilber Fusion Fx software and the values were represented as a percent colony forming ability.
Lung cancer cells A549 at exponentially phase were seeded into 12-well culture plates and kept overnight and treated with the compound 4q. Every 2 days the medium was replaced with the fresh medium. After 7 days of incubation, the colonies formed were fixed and stained with 1 % crystal violet in methanol for 3 h. The number of stained colonies were counted under chemdoc imaging system (Vilber Fusion Fx, France). Colony formation was calculated as a percentage to untreated control cultures (Moghaddam et al., 2009).

Test [9] concerns HCT-15. Description: MTT cytotoxicity assay. The settings on record: Homo sapiens, HCT-15 colon cancer, 72 h, read-out: In vitro Inhibitory Concentration (IC50). The procedure: as §1
(§3) MTT assay measures the reduction of MTT (3-(4,5-dimethylthiazol- 2-yl)-2,5-diphenyl tetrazolium bromide) by mitochondrial succinate dehydrogenase enzyme to insoluble formazan crystals. Since reduction of MTT occurs only in metabolically active cells, the level of activity is the measure of the viability of the cells.(Pordeli et al., 2017). Briefly, cells were plated in 96-well plates at a density of 3,000 to 6,000 cells per well in 100 µl of complete medium and allowed to grow overnight. Then the cells were treated with different concentrations of the synthesized compounds and incubated for 72 h. After the treatment, 100 µl of MTT (0.5 mg/ml) was added and incubated at 37 °C for 4 h. Then MTT reagent was aspirated and formazan crystals formed were dissolved by the addition of 200 µL of DMSO for 20 min at 37 °C. The formazan product quantity was measured by using a spectrophotometric microtiter plate reader (Spectra Max, M4 Molecular devices, USA) at 570 nm wavelength(Nekkanti et al., 2017).
For orientation: Tetrazolium assays rely on reduction of a dye to a coloured formazan, in cell work by metabolically active cells.

Test [10] concerns A549. Description: MTT cytotoxicity assay. The protocol: as §1, §3
In test [11] the test system is HT-29. Description: MTT cytotoxicity assay. The settings on record: Homo sapiens, HT-29 colorectal cancer, 72 h, read-out: In vitro Inhibitory Concentration (IC50). The procedure:
as §1, §3

The test system of test [12] is HFL-1 normal lung fibroblasts. Nature of the test: MTT cytotoxicity assay. The settings on record: Homo sapiens, HFL1, 72 h, read-out: In vitro Inhibitory Concentration (IC50). The procedure:
as §1, §3

Test [13] concerns DU-145. Description: MTT cytotoxicity assay. To be noted: Homo sapiens, DU-145 prostate cancer, 72 h, read-out: In vitro Inhibitory Concentration (IC50). The protocol: as §1, §3
Test [14] deals with NCI-H460. Nature of the test: MTT cytotoxicity assay. To be noted: Homo sapiens, NCI-H460 lung carcinoma, 72 h, read-out: In vitro Inhibitory Concentration (IC50). The protocol:
as §1, §3

For `C1=CC2=NC3=C(CCCC3)C(c3cn(Cc4ccccc4)c4ccccc34)N2C=C1` (stereo not drawn) [Compound 4i, 11-(1-benzyl-1H-indol-3-yl)-2,3,4, 11-tetrahydro-1H-pyrido [2,1-b] quinazoline], the “mitochondrial membrane potential (ΔΨm)” value with A549 cells [1] was “significant collapse in the ΔΨm”. Moreover, the GI50 was determined as 6.27 ± 0.19 µM with HCT-15 [2]; 2.7 ± 0.18 µM with A549 [3]; 5.98 ± 0.18 µM in the test on HT-29 [4]; 4.54 ± 0.59 µM in test [5]; 9.64 ± 0.37 µM in the test on DU-145 [6]; 3.24 ± 0.4 µM in the test on NCI-H460 [7]. Besides, the colony formation result in the test with A549 cells [8] was “Reductions in the number of colonies; also recorded: strong anti-clonogenic effect”. For the same compound, the IC50 turned out to be 11.3 ± 0.25 µM in the test on HCT-15 [9]; 4.57 ± 0.25 µM in the test with A549 [10] (Homo sapiens, A549 adenocarcinoma (lung), MTT, 72 h, read-out: In vitro Inhibitory Concentration (IC50)); 11.57 ± 0.04 µM with HT-29 [11]; 8.7 ± 0.36 µM in [12]; 9.15 ± 0.09 µM with DU-145 [13]; 5.53 ± 0.49 µM in the test on NCI-H460 [14]. Moreover, in the test on A549 [10] (IC50 in HFL-1 normal fibroblasts versus lung cancer cells), the “selectivity towards the cancer cells” value is listed as “approximately 2 fold”.
